Experimental data reported in US8298176B2, “Flow-induced delivery from a drug mass” (priority 2006, dated 2012).

Tests used:
[1] = cited from earlier work
[2] = Dissolution of gacyclidine base pellets in a continuous flow reactor (elution with Ringer's solution containing hydrochloric acid); type: physicochemical; settings: for pH of the eluted drug solution: room temperature (23±2° C.)
Procedure: A drug chamber similar to the one illustrated in FIGS. 2 and 4 was loaded with 11 pellets of gacyclidine base having a combined mass of 18 mg. This drug-loaded chamber was eluted at a flow rate of 20 μL/hr at room temperature (23±2° C.) using a MiniMed 508 syringe pump (available from Medtronics MiniMed of Northridge, Calif.). The syringe was loaded with 3 mL of Ringer's solution containing 0.05 to 3 mM hydrochloric acid. The eluted volume was collected in PTFE tubing attached to the pump drug capsule assembly, after a 3-D antibacterial filter. The pH of this solution was determined by use of a pH meter equipped with a Calomel electrode. Drug concentration was determined by HPLC.
The highest pH of the eluted drug solution (5.9) was obtained at 0.05 mM hydrochloric acid, and the lowest pH of the eluted drug solution (5.6) was obtained at 3 mM hydrochloric acid. These pH values indicate quantitative conversion of the hydrochloric acid to the drug salt and are consistent with the pH expected for solutions of the hydrochloride salt.

[3] = body temperature / in the presence of water; cited from earlier work

Structure (SMILES)	water solubility (in words) [1]	correlation in gacyclidine concentration per hydrochloric acid concentration used for elution ([2]; 0.05 to 3 mM HCl in Ringer's solution, 20 μL/hr, linear fit of FIG. 26, drug by HPLC)	pH of the eluted drug solution ([2]; eluted with Ringer's solution containing 0.05 mM hydrochloric acid, 20 μL/hr, highest pH)	pH of the eluted drug solution ([2]; eluted with Ringer's solution containing 3 mM hydrochloric acid, 20 μL/hr, lowest pH)	intercept at zero concentration of hydrochloric acid ([2]; linear fit of FIG. 26, gacyclidine concentration in eluate)	stability (in words) [3]
CCN(CC)C(=O)SC[C@H](NC(=O)CC[C@H](N)C(=O)O)C(=O)NCC(=O)O [carbamathione]	sparingly soluble in water	–	–	–	–	–
CC1CCCCC1(c1cccs1)N1CCCCC1 (stereo not shown) [gacyclidine]	sparingly soluble in water	0.976±0.049	5.9	5.6	0.0014 ± 0.0061 mM	much more stable than its acidic form in the presence of water
C[C@H]1CCCC[C@@]1(c1cccs1)N1CCCCC1.Cl [hydrochloride salt of gacyclidine]	highly water soluble	–	–	–	–	unstable at body temperature
CC1(C)O[C@@H]2C[C@H]3[C@@H]4CCC5=CC(=O)C=C[C@]5(C)[C@@]4(F)[C@@H](O)C[C@]3(C)[C@]2(C(=O)CO)O1 [triamcinolone acetonide]	very low water solubility	–	–	–	–	–
